# Measured values reported in patent publication US20230225313A1, “Methods and Compositions for Use in Glued-Wood Products” (ARXADA AG, priority 2020, published 2023).
# Like-named read-outs stand apart in the source and are kept apart here.
# Test: Thermogravimetric analysis (TGA), degradation temperature
# Assay type: physicochemical
# Method: The choice of suitable thermoplastics must also account for the biocide degradation temperature. The temperature of the melted thermoplastic at the point of biocide addition can be any temperature up to the biocide degradation temperature, preferably at least 20° C., and more preferably at least 40° C. below the biocide degradation temperature. Biocide degradation temperatures are most conveniently determined by thermogravimetric analysis (TGA). Unless hot melt mixing is to be performed in an inert atmosphere, TGA should be performed in air to account for oxidative degradation. TGA can be performed according to ISO 11358-1:2014.
# Imidacloprid has a degradation temperature of about 274° C. (onset of weight loss, see the thermogravimetric analysis data in FIG. 1). Accordingly, the mixing of imidacloprid with any thermoplastic by hot melt extrusion (HME) should be performed at temperatures less than about 270° C.
# Degradation temperatures were established by thermogravimetric analysis (TGA, see FIG. 1) with the following results: bifenthrin 195° C., triadimefon 195° C., and cyproconazole 205° C. These temperatures indicate upper limits for processing these biocides by HME. The melting points for these biocides are: bifenthrin 57-64.6° C., triadimefon 82.3° C., and cyproconazole 106.2-106.9° C.).
# “Friable biocide-composites” comprising a biocide, a thermoplastic and an embrittling agent were formed by HME along with a “solidified biocide-composite” comprising a biocide and an embrittling agent, i.e. no thermoplastic. The organoclay Tixogel MP 100 was used as the embrittling agent. Tixogel MP 100 has a thermal degradation temperature of 222° C. measured as onset of weight loss (FIG. 7, note a slight initial loss of moisture). This temperature represents a practical upper limit for HME when using Tixogel MP 100.
Compound,"Degradation temperature (TGA, onset of weight loss) [°C]",Degradation temperature
"Cc1c(COC(=O)[C@@H]2[C@H](/C=C(\Cl)C(F)(F)F)C2(C)C)cccc1-c1ccccc1 (relative stereo) [bifenthrin, (2-methyl[1,1′-biphenyl]-3-yl)methyl (1R,3R)-rel-3-[(1Z)-2-chloro-3,3,3-trifluoro-1-propen-1-yl]-2,2-dimethylcyclopropanecarboxylate]",195,
"O=[N+]([O-])NC1=NCCN1Cc1ccc(Cl)nc1 [Imidacloprid, (2E)-1-[(6-chloro-3-pyridinyl)methyl]-N-nitro-2-imidazolidinimin]",,about 274 °C
"CC(C1CC1)C(O)(Cn1cncn1)c1ccc(Cl)cc1 (stereo not drawn) [cyproconazole, α-(4-chlorophenyl)-α-(1-cyclopropylethyl)-1H-1,2,4-triazole-1-ethanol]",,205 °C
"CC(C)(C)C(=O)C(Oc1ccc(Cl)cc1)n1cncn1 (stereo not shown) [triadimefon, 1-(4-chlorophenoxy)-3,3-dimethyl-1-(1H-1,2,4-triazol-1-yl)-2-butanone]",195,
